{"source": "patent US20060134300A1", "about": "“Nutritional supplement for caffeine-containing beverages” (priority 2004, published 2006)", "origin": "cited, not measured here", "key": {"[1]": {"system": "sympathetic nervous system", "settings": "intraventricular administration"}, "[2]": {"system": "rats", "settings": "rat, in vivo"}, "[3]": {"system": "adrenaline and noradrenaline", "settings": "triple dose of caffeine"}, "[4]": {"system": "subjects put under stress", "settings": "100 mg/kg, within an hour of ingesting"}, "[5]": {"settings": "dose of 150 mg/kg, extended wakefulness"}}}
{"smiles": "NCCS(=O)(=O)O", "note": "[taurine, 2-aminoethanesulfonic acid]", "values": [{"measurement": "sympathetic nerve activity", "setting": "[1]", "value": "inhibited sympathetic nerve activity"}, {"measurement": "LD 50", "setting": "[2]", "value": "greater than 5,000 mg/kg"}]}
{"smiles": "Cn1c(=O)c2c(ncn2C)n(C)c1=O", "note": "[caffeine, 1,3,7-trimethylxanthine]", "values": [{"measurement": "catecholamines (adrenaline and noradrenaline)", "setting": "[3]", "value": "significantly increased"}]}
{"smiles": "N[C@@H](Cc1ccc(O)cc1)C(=O)O", "note": "[tyrosine]", "values": [{"measurement": "cognitive performance", "setting": "[4]", "value": "improved their cognitive performance"}, {"measurement": "lapse probability on a high-event-rate vigilance task", "setting": "[5]", "value": "significant reduction"}, {"measurement": "performance decline on a psychomotor task", "setting": "[5]", "value": "significant amelioration"}]}
